# Columns and labels:
# [1] = target: T1, Cholecystokinin receptor type A (Homo sapiens, UniProt P32238); experiment: Displacement of [125I]-CCK-8S from CCK1R after 100 mins by liquid scintillation counting
# T1 sequence (P32238 whole entry): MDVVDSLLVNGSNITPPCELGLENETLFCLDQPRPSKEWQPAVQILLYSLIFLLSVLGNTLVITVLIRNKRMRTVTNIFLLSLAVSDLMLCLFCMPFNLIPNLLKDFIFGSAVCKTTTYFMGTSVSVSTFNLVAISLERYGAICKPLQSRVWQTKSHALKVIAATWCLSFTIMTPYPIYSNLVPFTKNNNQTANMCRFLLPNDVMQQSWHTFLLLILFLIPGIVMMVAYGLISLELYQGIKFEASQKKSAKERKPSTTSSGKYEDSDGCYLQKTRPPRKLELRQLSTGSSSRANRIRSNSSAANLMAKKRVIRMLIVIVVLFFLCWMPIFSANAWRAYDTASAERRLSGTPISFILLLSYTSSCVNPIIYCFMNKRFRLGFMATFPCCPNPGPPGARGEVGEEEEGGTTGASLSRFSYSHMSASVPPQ
# [2] = target: T2, Gastrin/cholecystokinin type B receptor (Homo sapiens, UniProt P32239); experiment: Displacement of [125I]-CCK-8S from CCK2R after 100 mins by liquid scintillation counting
# T2 sequence (P32239 whole entry): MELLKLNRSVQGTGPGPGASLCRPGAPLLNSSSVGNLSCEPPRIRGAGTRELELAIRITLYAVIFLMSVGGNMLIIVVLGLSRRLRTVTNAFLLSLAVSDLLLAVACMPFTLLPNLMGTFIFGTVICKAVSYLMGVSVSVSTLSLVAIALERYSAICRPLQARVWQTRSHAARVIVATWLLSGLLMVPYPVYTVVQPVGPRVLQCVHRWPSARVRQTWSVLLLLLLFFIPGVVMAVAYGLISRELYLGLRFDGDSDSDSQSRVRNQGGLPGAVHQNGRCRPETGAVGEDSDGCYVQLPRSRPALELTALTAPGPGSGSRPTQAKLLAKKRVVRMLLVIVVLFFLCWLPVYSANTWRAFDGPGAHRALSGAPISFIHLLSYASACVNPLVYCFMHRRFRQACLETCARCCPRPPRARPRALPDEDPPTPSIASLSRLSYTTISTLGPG
Ki [1],Ki [2],Compound
3980 nM,316 nM,CN(CCc1ccccc1)C(=O)c1ccc(Cl)cc1NS(=O)(=O)c1cccc2nsnc12
398 nM,631 nM,O=C(NCCc1ccccc1)c1ccc(Br)cc1NS(=O)(=O)c1cccc2nsnc12
316 nM,631 nM,O=C(N[C@H](Cc1ccc(Cl)cc1)C(=O)O)c1ccc(Cl)cc1NS(=O)(=O)c1cccc2nsnc12
3980 nM,79.4 nM,O=C(N[C@@H](Cc1ccccc1)C(=O)O)c1ccc(Cl)cc1NS(=O)(=O)c1cccc2nsnc12
158 nM,6310 nM,O=C(NCCc1ccccc1)c1ccc(Cl)cc1NS(=O)(=O)c1cccc2nsnc12
> 10000 nM,,O=C(N[C@H](C(=O)O)C(c1ccc(Cl)cc1)c1ccc(Cl)cc1)c1ccc(Cl)cc1NS(=O)(=O)c1cccc2nsnc12
> 10000 nM,,O=C(NCc1ccccc1)c1ccc(Cl)cc1NS(=O)(=O)c1cccc2nsnc12
200 nM,1580 nM,C[C@H](c1ccc(Cl)c(Cl)c1)[C@@H](NC(=O)c1ccc(Cl)cc1NS(=O)(=O)c1cccc2nsnc12)C(=O)O
79.4 nM,7940 nM,O=C(NCCc1ccc(Cl)c(Cl)c1)c1ccc(Cl)cc1NS(=O)(=O)c1cccc2nsnc12
3160 nM,158 nM,O=C(N[C@H](Cc1ccccc1)C(=O)O)c1ccc(Cl)cc1NS(=O)(=O)c1cccc2nsnc12
2000 nM,63.1 nM,O=C(N[C@@H](Cc1ccc(Cl)cc1)C(=O)O)c1ccc(Cl)cc1NS(=O)(=O)c1cccc2nsnc12
2000 nM,1000 nM,O=C(NCCCc1ccccc1)c1ccc(Cl)cc1NS(=O)(=O)c1cccc2nsnc12
,> 10000 nM,O=C(NCC(c1ccc(Cl)cc1)c1ccc(Cl)cc1)c1ccc(Cl)cc1NS(=O)(=O)c1cccc2nsnc12
,1000 nM,CC(C)(c1ccc(Cl)cc1)[C@H](NC(=O)c1ccc(Cl)cc1NS(=O)(=O)c1cccc2nsnc12)C(=O)O
1000 nM,> 10000 nM,O=C(NCCc1ccc(Cl)cc1)c1ccc(Cl)cc1NS(=O)(=O)c1cccc2nsnc12
100 nM,,CC(CNC(=O)c1ccc(Cl)cc1NS(=O)(=O)c1cccc2nsnc12)c1ccc(Cl)cc1 (racemic)

# From ChEMBL document CHEMBL1156089, “Anthranilic sulfonamide CCK1/CCK2 dual receptor antagonists I: discovery of CCKR1 selectivity in a previously CCKR2-selective lead series” (Bioorg Med Chem Lett, 2009)
